Patent publication US8093221B2, “Cosmetic and pharmaceutical compositions comprising lauroyl proline and an ester of anhydrohexitol and of an aliphatic carboxylic acid” (Societe d'Exploitation de Produits pour les Industries …, priority 2005, dated 2012)

Assay: Tests for dissolving the composition in liquid media (water, liquid paraffin, propylene glycol)
Type: physicochemical
Conditions: 0.75% by mass of N-lauroyl proline (Composition 3 at 3% by mass)
Experimental: Composition 3 prepared in the above paragraph is dissolved in water, in liquid paraffin and in propylene glycol, at a proportion of 3% by mass, which corresponds to 0.75% by mass of N-lauroyl proline.

## CCCCCCCCCCCC(=O)N1CCC[C@H]1C(=O)O [Pure N-lauroyl proline, N-lauroyl proline]
Liquid paraffin
  Temperature at which dispersible in liquid paraffin: dispersible at 70 °C
Propylene glycol
  Temperature at which dispersible in propylene glycol: dispersible at 60 °C
water
  Temperature at which dispersible in water: dispersible at 80 °C
